In patent publication US12240862B2, “Inhibitors of peptidylarginine deiminases” (Gilead Sciences, Inc., priority 2020, dated 2025):

Each compound was assayed against T1, human PAD4 (Homo sapiens, UniProt Q9UM07) (assay: In vitro PAD4 BAEE biochemical assay). Conditions: human PAD4, BAEE substrate; 5 nM PAD4, 2 mM calcium chloride, 3 mM BAEE; geometric mean of multiple experiments.
T1 construct: human PAD4 (NM_012387), A2P663, was PCR amplified; His-SUMO (N, cleaved yes); made in house; host or cells: E. coli BL21(DE3)
T1 sequence (Q9UM07 2-663): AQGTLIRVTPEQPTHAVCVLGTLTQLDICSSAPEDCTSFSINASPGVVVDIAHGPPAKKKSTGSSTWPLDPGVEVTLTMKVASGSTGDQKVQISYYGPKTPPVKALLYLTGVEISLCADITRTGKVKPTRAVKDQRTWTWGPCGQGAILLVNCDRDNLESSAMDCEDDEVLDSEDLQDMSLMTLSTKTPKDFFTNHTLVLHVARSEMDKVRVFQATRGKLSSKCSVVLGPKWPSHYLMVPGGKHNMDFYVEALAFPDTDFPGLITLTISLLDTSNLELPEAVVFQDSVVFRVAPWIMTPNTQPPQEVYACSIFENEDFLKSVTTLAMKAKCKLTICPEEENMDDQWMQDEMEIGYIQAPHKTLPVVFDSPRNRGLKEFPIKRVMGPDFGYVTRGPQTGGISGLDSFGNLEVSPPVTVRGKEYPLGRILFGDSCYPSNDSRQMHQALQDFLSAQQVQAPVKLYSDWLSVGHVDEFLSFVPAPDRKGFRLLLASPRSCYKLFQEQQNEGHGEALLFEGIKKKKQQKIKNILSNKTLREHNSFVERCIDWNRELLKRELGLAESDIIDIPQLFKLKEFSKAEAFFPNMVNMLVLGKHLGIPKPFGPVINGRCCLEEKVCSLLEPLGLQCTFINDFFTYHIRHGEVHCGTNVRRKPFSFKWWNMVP
Procedure, shortened: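 Tag-free recombinant hPAD4 (5 nM), 2 mM CaCl2, 3 mM BAEE, 50 mM MOPS pH 7.6, 2 mM DTT; 30 min compound preincubation, 2 h reaction, all 25 °C. EDTA quench; ammonia read via o-phthalaldehyde amine coupling, 1 h.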
With “~{N}-[(1~{R})-1-[2-[7- [(1~{R},2~{R},4~{S})-2- amino-7- azabicyclo[2.2.1]heptane-7- carbonyl]- 5-methoxy-3-methylimidazo [1,2-a]pyridin-2-yl]-1- (cyclopropylmethyl)pyrrolo [2,3-b]pyridin-6-yl]ethyl]- 3,3-dimethylcyclobutane-1- carboxamide [Example 71]” the IC50 was 0.0634 µM.
With `COc1cc(C(=O)N2[C@H]3CC[C@@H]2[C@H](N)C3)cc2nc(-c3cc4ccc([C@@H](C)NC(=O)NC(C)(C)C)nc4n3CC3CC3)c(C)n12` [Example 244, 1-[(1~{R})-1-[2-[7-[(1~{R},2~{R},4~{S})-2-amino-7-azabicyclo[2.2.1]heptane-7-carbonyl]-5-methoxy-3-methylimidazo [1,2-a]pyridin-2-yl]-1-(cyclopropylmethyl)pyrrolo [2,3-b]pyridin-6-yl]ethyl]-3-~{tert}-butylurea] the IC50 was 0.0896 µM.
In the case of `COc1cc(C(=O)N2[C@H]3CC[C@@H]2[C@H](N)C3)cc2nc(-c3cc4ccc(N5CCCC(C)S5(=O)=O)nc4n3CC3CC3)c(C)n12` (stereo partly drawn) [Example 454, [(1~{R},2~{R},4~{S})-2-amino-7-azabicyclo [2.2.1]heptan-7-yl]-[2-[1-(cyclopropylmethyl)-6-(6-methyl-1,1-dioxothiazinan-2-yl)pyrrolo [2,3-b]pyridin-2-yl]-5-methoxy-3-methylimidazo[1,2-a]pyridin-7-yl]methanone], the IC50 is reported as 0.145 µM.
In the case of `COc1cc(C(=O)N2[C@H]3CC[C@@H]2[C@H](N)C3)cc2nc(-c3cc4ccc([C@@H](C)N5CCCC5)nc4n3CC3CC3)c(C)n12` [Example 272, [(1~{R},2~{R},4~{S})-2-amino-7-azabicyclo [2.2.1]heptan-7-yl]-[2-[1-(cyclopropylmethyl)-6-[(1~{R})-1-pyrrolidin-1-ylethyl]pyrrolo[2,3-b]pyridin-2-yl]-5-methoxy-3-methylimidazo[1,2-a]pyridin-7-yl]methanone], the IC50 is reported as 0.134 µM.
`COc1ccc2cc(-c3nc4cc(C(=O)N5CCC[C@@H](N)C5)cc(OC)n4c3C)n(CC3CC3)c2n1` [Example 629, [(3~{R})-3-aminopiperidin-1-yl]-[2-[1-(cyclopropylmethyl)-6-methoxypyrrolo[2,3-b]pyridin-2-yl]-5-methoxy-3-methylimidazo[1,2-a]pyridin-7-yl]methanone] showed an IC50 of 2.27 µM.
`CNC(=O)COc1ccc2cc(-c3nc4cc(C(=O)N5CCC[C@@H](N)C5)cc(OC)n4c3C)n(CC3CC3)c2n1` [Example 622, 2-[2-[7-[(3~{R})-3-aminopiperidine-1-carbonyl]-5-methoxy-3-methylimidazo[1,2-a]pyridin-2-yl]-1-(cyclopropylmethyl)pyrrolo [2,3-b]pyridin-6-yl] oxy-~{N}-methylacetamide] was tested, and the IC50 was 0.894 µM.
`CCC(NC(C)=O)c1ccc2cc(-c3nc4cc(C(=O)N5CCC[C@@H](N)C5)cc(OC)n4c3C)n(CC3CC3)c2n1` (stereo partly drawn) [Example 193, ~{N}-[1-[2-[7-[(3~{R})-3-aminopiperidine-1-carbonyl]-5-methoxy-3-methylimidazo [1,2-a]pyridin-2-yl]-1-(cyclopropylmethyl)pyrrolo [2,3-b]pyridin-6-yl]propyl]acetamide] was tested, and the IC50 was 0.4 µM.
`CCOC(=O)CC(C)c1ccc2cc(-c3nc4cc(C(=O)N5[C@H]6CC[C@@H]5[C@H](N)C6)cc(OC)n4c3C)n(CC3CC3)c2n1` (stereo partly drawn) [Example 559, ethyl 3-[2-[7-[(1~{R}, 2~{R},4~{S})-2-amino-7-azabicyclo[2.2.1]heptane-7-carbonyl]-5-methoxy-3-methylimidazo[1,2-a]pyridin-2-yl]-1-(cyclopropylmethyl)pyrrolo[2,3-b]pyridin-6-yl]butanoate] showed an IC50 of 0.0965 µM.
Work on `COc1cc(C(=O)N2[C@H]3CC[C@@H]2[C@H](N)C3)cc2nc(-c3cc4ccc([C@@H](C)NC(=O)c5cccn(C)c5=O)nc4n3CC3CC3)c(C)n12` [Example 30, ~{N}-[(1~{R})-1-[2-[7-[(1~{R}, 2~{R},4~{S})-2-amino-7-azabicyclo [2.2.1]heptane-7-carbonyl]-5-methoxy-3-methylimidazo [1,2-a]pyridin-2-yl]-1-(cyclopropylmethyl)pyrrolo[2,3-b]pyridin-6-yl]ethyl]-1-methyl-2-oxopyridine-3-carboxamide] yielded an IC50 of 0.0824 µM.
In the case of `COc1cc(C(=O)N2[C@H]3CC[C@@H]2[C@H](N)[C@H](OC)C3)cc2nc(-c3cc4ccc([C@@H](C)NC(=O)C56CC(F)(C5)C6)nc4n3CC3CC3)c(C)n12` [Example 183, ~{N}-[(1~{R})-1-[2-[7-[(1~{R},2~{S},3~{R}, 5~{S})-2-amino-3-methoxy-8-azabicyclo [3.2.1]octane-8-carbonyl]-5-methoxy-3-methylimidazo [1,2-a]pyridin-2-yl]-1-(cyclopropylmethyl)pyrrolo [2,3-b]pyridin-6-yl]ethyl]-3-fluorobicyclo[1.1.1]pentane-1-carboxamide], the IC50 is reported as 0.237 µM.
`CCc1ccc2cc(-c3nc4cc(C(=O)N5[C@H]6CC[C@@H]5[C@H](N)C6)cc(OC)n4c3C3CCC3)n(CC3CC3)c2n1` [Example 577, [(1~{R},2~{R},4~{S})-2-amino-7-azabicyclo [2.2.1]heptan-7-yl]-[3-cyclobutyl-2-[1-(cyclopropylmethyl)-6-ethylpyrrolo[2,3-b]pyridin-2-yl]-5-methoxyimidazo [1,2-a]pyridin-7-yl]methanone] showed an IC50 of 0.996 µM.
Compound `COc1cc(C(=O)N2C[C@H]3CC[C@@H]2[C@@H]3N)cc2nc(-c3cc4ccc(N(C)S(C)(=O)=O)nc4n3C)c(C)n12` [Example 493, N-[2-[7-[(1R,4R, 7R)-7-amino-2-azabicyclo [2.2.1]heptane-2-carbonyl]-5-methoxy-3-methyl-imidazo[1,2-a]pyridin-2-yl]-1-methyl-pyrrolo[2,3-b]pyridin-6-yl]-N-methyl-methanesulfonamide] has an IC50 of 2.5 µM.
`COc1cc(C(=O)N2[C@H]3CC[C@@H]2[C@H](N)C3)cc2nc(-c3cc4ccc(C5CCCCN5C(C)=O)nc4n3CC3CC3)c(C)n12` (stereo partly drawn) [Example 515, 1-[2-[2-[7-[(1~{R},2~{R}, 4~{S})-2-amino-7-azabicyclo[2.2.1]heptane-7-carbonyl]-5-methoxy-3-methylimidazo[1,2-a]pyridin-2-yl]-1-(cyclopropylmethyl)pyrrolo[2,3-b]pyridin-6-yl]piperidin-1-yl] ethenone] showed an IC50 of 0.125 µM.
With `COc1cc(C(=O)N2[C@H]3CC[C@@H]2[C@H](N)C3)cc2nc(-c3cc4ccc([C@@H](C)NC(=O)N5CC(C(F)F)C5)nc4n3CC3CC3)c(C)n12` [Example 206, ~{N}-[(1~{R})-1-[2-[7-[(1~{R},2~{R},4~{S})-2-amino-7-azabicyclo[2.2.1]heptane-7-carbonyl]-5-methoxy-3-methylimidazo [1,2-a]pyridin-2-yl]-1-(cyclopropylmethyl)pyrrolo [2,3-b]pyridin-6-yl]ethyl]-3-(difluoromethyl)azetidine-1-carboxamide] the IC50 was 0.0379 µM.
In the case of `COc1cc(C(=O)N2[C@H]3CC[C@@H]2[C@H](N)C3)cc2nc(-c3cc4ccc([C@@H](C)NC(=O)C5CC6(CC6)C5)nc4n3CC3CC3)c(C)n12` [Example 55, ~{N}-[(1~{R})-1-[2-[7-[(1~{R},2~{R},4~{S})-2-amino-7-azabicyclo [2.2.1]heptane-7-carbonyl]-5-methoxy-3-methylimidazo [1,2-a]pyridin-2-yl]-1-(cyclopropylmethyl)pyrrolo[2,3-b]pyridin-6-yl]ethyl] spiro[2.3]hexane-5-carboxamide], the IC50 is reported as 0.0526 µM.
